According to patent US12479804B2, “Herbicidal compounds” (SYNGENTA CROP PROTECTION AG, priority 2019, dated 2025):

Legend:
Assay in all cases: Glasshouse herbicidal test, pre- and post-emergence, percentage damage to the plant
Type in all cases: in vivo
[1] = system: Alopecurus myosuroides (ALOMY); settings: 250 g/h, evaluated after 13 days; for ALOMY POST percentage damage caused to the plant (five-point scale): post-emergence; for ALOMY PRE percentage damage caused to the plant (five-point scale): pre-emergence
Procedure: (§1) Seeds of a variety of test species are sown in standard soil in pots (Lolium perenne (LOLPE), Setaria faberi (SETFA), Alopecurus myosuroides (ALOMY), Echinochloa crus-galli (ECHCG), Avena fatua (AVEFA)). After cultivation for one day (pre-emergence) or after 8 days cultivation (post-emergence) under controlled conditions in a glasshouse (at 24/16° C., day/night; 14 hours light; 65% humidity), the plants are sprayed with an aqueous spray solution derived from the formulation of the technical active ingredient in acetone/water (50:50) solution containing 0.5% Tween 20 (polyoxyethelyene sorbitan monolaurate, CAS RN 9005-64-5). Compounds are applied at 250 g/h. The test plants are then grown in a glasshouse under controlled conditions in a glasshouse (at 24/16° C., day/night; 14 hours light; 65% humidity) and watered twice daily. After 13 days for pre and post-emergence, the test is evaluated for the percentage damage caused to the plant. The biological activities are shown in the following table on a five-point scale (5=80-100%; 4=60-79%; 3=40-59%; 2=20-39%; 1=0-19%).

Avena fatua (AVEFA) = settings: 250 g/h, evaluated after 13 days; for AVEFA POST percentage damage caused to the plant (five-point scale): post-emergence; for AVEFA PRE percentage damage caused to the plant (five-point scale): pre-emergence
Procedure: as §1

[2] = system: Echinochloa crus-galli (ECHCG); settings: 250 g/h, evaluated after 13 days; for ECHCG POST percentage damage caused to the plant (five-point scale): post-emergence; for ECHCG PRE percentage damage caused to the plant (five-point scale): pre-emergence
Procedure: as §1

Lolium perenne (LOLPE) = settings: 250 g/h, evaluated after 13 days; for LOLPE POST percentage damage caused to the plant (five-point scale): post-emergence; for LOLPE PRE percentage damage caused to the plant (five-point scale): pre-emergence
Procedure: as §1

Setaria faberi (SETFA) = settings: 250 g/h, evaluated after 13 days; for SETFA POST percentage damage caused to the plant (five-point scale): post-emergence; for SETFA PRE percentage damage caused to the plant (five-point scale): pre-emergence
Procedure: as §1

Compound | ALOMY POST percentage damage caused to the plant (five-point scale) [1] | ALOMY PRE percentage damage caused to the plant (five-point scale) [1] | AVEFA POST percentage damage caused to the plant (five-point scale) (Avena fatua (AVEFA)) | AVEFA PRE percentage damage caused to the plant (five-point scale) (Avena fatua (AVEFA)) | ECHCG POST percentage damage caused to the plant (five-point scale) [2] | ECHCG PRE percentage damage caused to the plant (five-point scale) [2] | LOLPE POST percentage damage caused to the plant (five-point scale) (Lolium perenne (LOLPE)) | LOLPE PRE percentage damage caused to the plant (five-point scale) (Lolium perenne (LOLPE)) | SETFA POST percentage damage caused to the plant (five-point scale) (Setaria faberi (SETFA)) | SETFA PRE percentage damage caused to the plant (five-point scale) (Setaria faberi (SETFA))
CC#Cc1cc(C)c(C2C(=O)CC3(CCN(S(=O)(=O)CC)C3)CC2=O)c(C)c1 (centres unmarked) [Compound A7] | 5 (5=80-100%) | 5 (5=80-100%) | 5 (5=80-100%) | 5 (5=80-100%) | 5 (5=80-100%) | 5 (5=80-100%) | 5 (5=80-100%) | 5 (5=80-100%) | 5 (5=80-100%) | 5 (5=80-100%)
CC#Cc1cc(C)c(C2C(=O)CC3(CCCN(S(=O)(=O)CC)CC3)CC2=O)c(C)c1 (centres unmarked) [Compound A8] | 5 (5=80-100%) | 5 (5=80-100%) | 5 (5=80-100%) | 5 (5=80-100%) | 5 (5=80-100%) | 5 (5=80-100%) | 5 (5=80-100%) | 5 (5=80-100%) | 5 (5=80-100%) | 5 (5=80-100%)
CC#Cc1cc(C)c(C2C(=O)CC3(CCCN(C(C)=O)CC3)CC2=O)c(C)c1 (centres unmarked) [Compound A9] | 5 (5=80-100%) | 5 (5=80-100%) | 5 (5=80-100%) | 5 (5=80-100%) | 5 (5=80-100%) | 5 (5=80-100%) | 5 (5=80-100%) | 5 (5=80-100%) | 5 (5=80-100%) | 5 (5=80-100%)
CC#Cc1cc(C)c(C2C(=O)CC3(CCC(=O)NC3)CC2=O)c(C)c1 (centres unmarked) [Compound A10] | 5 (5=80-100%) | 5 (5=80-100%) | 5 (5=80-100%) | 5 (5=80-100%) | 5 (5=80-100%) | 5 (5=80-100%) | 5 (5=80-100%) | 5 (5=80-100%) | 5 (5=80-100%) | 5 (5=80-100%)
CC#Cc1cc(C)c(C2C(=O)CC3(CCC(=O)N(C(C)=O)C3)CC2=O)c(C)c1 (centres unmarked) [Compound A11] | 5 (5=80-100%) | 5 (5=80-100%) | 5 (5=80-100%) | 3 (3=40-59%) | 5 (5=80-100%) | 5 (5=80-100%) | 5 (5=80-100%) | 5 (5=80-100%) | 5 (5=80-100%) | 5 (5=80-100%)
